Assay results: ChEMBL document CHEMBL1201862, “PubChem BioAssay data set” (2004)
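Five concentrations, 48 hours, 96-well plates. GI50 is the concentration that inhibits growth by half.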 Active and inactive are the calls of the source. Cut-off read from the data, not from the text of the source: active = GI50 up to about 1.1 µM and inactive = higher.

Assays:
Test in all cases: DTP human tumour cell line panel, 48 h
SF-268 = tested on: SF-268
OVCAR-3 = tested on: OVCAR-3
NCI-H522 = tested on: NCI-H522
Malme-3M = tested on: Malme-3M
CAKI-1 = tested on: CAKI-1
RPMI-8226 = tested on: RPMI-8226
CCRF-CEM = tested on: CCRF-CEM
SNB-19 = tested on: SNB-19
SN12C = tested on: SN12C
NCI-H226 = tested on: NCI-H226
A549 = tested on: A549
HT-29 = tested on: HT-29
SW-620 = tested on: SW-620
RXF 393 = tested on: RXF 393
NCI-H23 = tested on: NCI-H23
HCT-116 = tested on: HCT-116
EKVX = tested on: EKVX
A498 = tested on: A498

Measured: GI50

COC(=O)CCC(=O)Nc1cc(Cl)ccc1Cl
inactive: SF-268 > 100 µM | OVCAR-3 > 100 µM | NCI-H522 > 100 µM | Malme-3M > 100 µM | CAKI-1 > 100 µM | RPMI-8226 > 100 µM | CCRF-CEM > 100 µM | SNB-19 > 100 µM | SN12C > 100 µM | NCI-H226 > 100 µM | A549 > 100 µM | HT-29 > 100 µM | SW-620 > 100 µM | RXF 393 30.2 µM | NCI-H23 > 100 µM | HCT-116 > 100 µM | EKVX > 100 µM

COP1(=O)Oc2ccccc2C(=O)C(C(F)(F)F)(C(F)(F)F)O1 (stereo unspecified)
inactive: SF-268 > 100 µM | A498 > 100 µM | NCI-H522 > 100 µM | CAKI-1 50.6 µM | RPMI-8226 42.9 µM | CCRF-CEM > 100 µM | SNB-19 > 100 µM | SN12C > 100 µM | A549 > 100 µM | HT-29 > 100 µM | SW-620 > 100 µM | RXF 393 > 100 µM | NCI-H23 > 100 µM | HCT-116 > 100 µM | EKVX > 100 µM

Brc1ccc2c(c1)C1C(CO2)C(c2ccccc2)=NN1c1ccccc1 (stereo unspecified)
inactive: SF-268 > 100 µM | A498 > 100 µM | OVCAR-3 > 100 µM | Malme-3M > 100 µM | RPMI-8226 77.6 µM | CCRF-CEM > 100 µM | SNB-19 > 100 µM | A549 > 100 µM | HT-29 54.2 µM | SW-620 > 100 µM | RXF 393 > 100 µM | NCI-H23 > 100 µM | HCT-116 > 100 µM | EKVX > 100 µM

O=C(N/C(=C\c1ccccc1Cl)c1nc2ccccc2[nH]1)c1ccccc1
inactive: SF-268 32.7 µM | OVCAR-3 29.7 µM | NCI-H522 22.8 µM | Malme-3M 23.5 µM | CAKI-1 29.5 µM | CCRF-CEM 30.4 µM | SNB-19 29.3 µM | SN12C 16.7 µM | A549 26.7 µM | HT-29 24.3 µM | SW-620 27.5 µM | RXF 393 27.4 µM | NCI-H23 25.1 µM | EKVX 21.3 µM

CC(=O)OCC1OC(n2c(-c3ccc(C)cc3)cc(-c3ccccc3)c(C#N)c2=O)C(OC(C)=O)C(OC(C)=O)C1OC(C)=O (stereo unspecified)
inactive: SF-268 > 100 µM | OVCAR-3 > 100 µM | NCI-H522 82.6 µM | Malme-3M > 100 µM | CAKI-1 > 100 µM | RPMI-8226 67.1 µM | CCRF-CEM > 100 µM | SNB-19 > 100 µM | SN12C > 100 µM | NCI-H226 > 100 µM | A549 > 100 µM | HT-29 > 100 µM | SW-620 > 100 µM | NCI-H23 60.7 µM | HCT-116 > 100 µM | EKVX > 100 µM

O=C1c2ccccc2C(=O)C2C1C1C(=O)c3ccccc3C(=O)C21 (stereo unspecified)
inactive: SF-268 78.2 µM | OVCAR-3 40.6 µM | NCI-H522 26.2 µM | Malme-3M 55.1 µM | CAKI-1 > 100 µM | CCRF-CEM > 100 µM | SNB-19 > 100 µM | SN12C > 100 µM | A549 > 100 µM | HT-29 > 100 µM | SW-620 > 100 µM | RXF 393 > 100 µM | NCI-H23 99.1 µM | EKVX > 100 µM

Cc1ccc(-c2cc(=O)c3cc(C)c(C)c(C(=O)O)c3o2)cc1C
inactive: OVCAR-3 > 100 µM | NCI-H522 > 100 µM | Malme-3M > 100 µM | CAKI-1 28.4 µM | RPMI-8226 > 100 µM | CCRF-CEM > 100 µM | SNB-19 > 100 µM | SN12C > 100 µM | NCI-H226 > 100 µM | A549 > 100 µM | HT-29 > 100 µM | SW-620 > 100 µM | RXF 393 > 100 µM | NCI-H23 > 100 µM | HCT-116 > 100 µM | EKVX > 100 µM
